Measurements reported in ChEMBL document CHEMBL5131384, “Design, synthesis, and biological evaluation of indole-based hydroxamic acid derivatives as histone deacetylase inhibitors” (Eur J Med Chem, 2022).
Calls of active or inactive are those of the source. The calls are words filed in the database; no cut-off is given here.

How the values were obtained:
[1] = molecular target: T1, Protein deacetylase HDAC6 (Homo sapiens, UniProt Q9UBN7); test: Inhibition of HDAC6 (unknown origin) using Boc-Lys(Ac)-AMC as substrate incubated for 60 mins by fluorescence plate reader assay
T1 sequence (Q9UBN7 whole entry): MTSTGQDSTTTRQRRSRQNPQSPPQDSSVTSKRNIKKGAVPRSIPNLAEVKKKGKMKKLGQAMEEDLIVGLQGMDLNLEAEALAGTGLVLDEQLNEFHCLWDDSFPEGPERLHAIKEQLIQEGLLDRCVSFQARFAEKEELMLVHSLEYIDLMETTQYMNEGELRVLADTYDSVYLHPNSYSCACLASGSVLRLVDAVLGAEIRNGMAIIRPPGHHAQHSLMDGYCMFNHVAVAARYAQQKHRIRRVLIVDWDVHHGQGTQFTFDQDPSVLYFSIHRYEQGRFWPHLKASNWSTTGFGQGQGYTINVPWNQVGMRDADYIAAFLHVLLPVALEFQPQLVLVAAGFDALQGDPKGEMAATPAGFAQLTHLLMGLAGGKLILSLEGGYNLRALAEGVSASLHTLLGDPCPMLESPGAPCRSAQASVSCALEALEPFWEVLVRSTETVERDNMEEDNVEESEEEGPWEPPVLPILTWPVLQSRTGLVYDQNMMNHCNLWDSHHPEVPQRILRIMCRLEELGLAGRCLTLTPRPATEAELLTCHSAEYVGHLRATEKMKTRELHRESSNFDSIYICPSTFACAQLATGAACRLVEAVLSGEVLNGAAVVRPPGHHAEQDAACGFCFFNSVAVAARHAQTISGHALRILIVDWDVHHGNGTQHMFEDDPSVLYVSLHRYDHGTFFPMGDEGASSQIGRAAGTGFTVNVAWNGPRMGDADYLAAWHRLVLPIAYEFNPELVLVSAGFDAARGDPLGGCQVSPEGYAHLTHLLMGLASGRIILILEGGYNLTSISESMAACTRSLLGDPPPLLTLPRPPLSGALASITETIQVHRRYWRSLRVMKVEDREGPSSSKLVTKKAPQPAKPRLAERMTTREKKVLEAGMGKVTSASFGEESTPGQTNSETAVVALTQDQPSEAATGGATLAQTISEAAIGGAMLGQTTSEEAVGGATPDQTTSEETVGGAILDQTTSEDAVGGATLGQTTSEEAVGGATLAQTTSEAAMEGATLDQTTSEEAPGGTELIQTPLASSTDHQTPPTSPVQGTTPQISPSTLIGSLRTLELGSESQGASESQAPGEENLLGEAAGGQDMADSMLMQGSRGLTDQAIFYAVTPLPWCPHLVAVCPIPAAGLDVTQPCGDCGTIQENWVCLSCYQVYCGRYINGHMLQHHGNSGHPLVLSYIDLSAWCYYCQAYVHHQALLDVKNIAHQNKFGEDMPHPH

[2] = molecular target: Histone deacetylase 1 (Homo sapiens, UniProt Q13547); test: Inhibition of HDAC1 (unknown origin) using Boc-Lys(Ac)-AMC as substrate incubated for 60 mins by fluorescence plate reader assay
Sequence of Histone deacetylase 1 (Q13547 whole entry): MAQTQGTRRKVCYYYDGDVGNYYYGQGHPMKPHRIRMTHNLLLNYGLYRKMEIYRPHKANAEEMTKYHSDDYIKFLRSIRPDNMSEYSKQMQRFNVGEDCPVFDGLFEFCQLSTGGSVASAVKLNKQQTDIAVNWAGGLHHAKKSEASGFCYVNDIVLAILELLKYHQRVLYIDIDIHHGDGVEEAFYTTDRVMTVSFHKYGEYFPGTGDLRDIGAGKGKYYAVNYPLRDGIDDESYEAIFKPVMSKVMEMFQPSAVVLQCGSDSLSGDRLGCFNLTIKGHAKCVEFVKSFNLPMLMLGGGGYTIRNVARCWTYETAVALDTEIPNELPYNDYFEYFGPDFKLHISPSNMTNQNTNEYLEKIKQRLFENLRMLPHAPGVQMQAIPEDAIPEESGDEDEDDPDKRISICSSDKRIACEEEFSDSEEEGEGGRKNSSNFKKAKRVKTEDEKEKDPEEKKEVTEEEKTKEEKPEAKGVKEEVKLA

[3] = tested on: HCT-116; test: Inhibition of colony formation in human HCT-116 cells assessed as reduction in number of colonies at 3 nM drug medium changed every three days for 2 weeks by crystal violet staining based analysis; format: functional, cell-based
[4] = Toxicity in BALB/c mouse assessed as body weight loss at 20 to 40 mg/kg, ip adminstered once daily for 15 days; format: organism-based; conditions: in vivo, 360 h, dose 20-40 mg/kg, time 15 day
[5] = molecular target: T2, Histone deacetylase (Homo sapiens) (UniProt Q13547+O15379+Q9UBN7+Q92769+Q9UQL6+Q8WUI4+Q9BY41+Q96DB2+P56524+Q9UKV0+Q969S8); test: Inhibition of HDAC in human HCT-116 cells assessed as upregulation of acetylated H3 level at 0.1 to 1 uM incubated for 48 hrs by Western blot analysis; format: cell-based; conditions: dose 0.1-1 µM, DDE = dose-dependent effect
[6] = Toxicity in BALB/c mouse assessed as drug tolerability at 20 to 40 mg/kg, ip adminstered once daily for 15 days; format: organism-based; conditions: in vivo, 360 h, dose 20-40 mg/kg, time 15 day
[7] = tested on: HCT-116; test: Inhibition of colony formation in human HCT-116 cells at 3 to 10 nM drug medium changed every three days for 2 weeks by crystal violet staining based analysis; format: functional, cell-based; conditions: dose 3-10 nM, DDE = dose-dependent effect
[8] = tested on: HCT-116; test: Induction of apoptosis in human HCT-116 cells assessed as late apoptotic cells at 1 uM incubated for 48 hrs by Annexin V-FITC/propidium iodide staining-based flow cytometric analysis (reference value: 5.80 %); format: functional
[9] = tested on: Mus musculus; test: In vivo inhibition of HDAC in BALB/c mouse xenografted with HCT-116 cells assessed as upregulation of acetylated H3 expression at 20 to 40 mg/kg, ip for 15 days by Western blot analysis; format: functional, organism-based; conditions: dose 20-40 mg/kg, time 15.0 day, DDE = dose-dependent effect
[10] = molecular target: T2, Histone deacetylase (Homo sapiens); test: Inhibition of HDAC in human HCT-116 cells assessed as upregulation of acetylated alpha-tubulin level 0.1 to 1 uM incubated for 48 hrs by Western blot analysis; format: cell-based; conditions: dose 0.1-1 µM, DDE = dose-dependent effect
[11] = tested on: HCT-116; test: Antitumor activity against human HCT-116 cells xenografted in BALB/c mouse assessed as inhibition of tumor growth at 20 mg/kg, ip adminstered once daily measured every three days for 15 days by vernier caliper method relative to control; format: functional; set-up: scale not given: the % may be the effect or the level left; conditions: time 15 day
[12] = tested on: HCT-116; test: Induction of apoptosis in human HCT-116 cells at 0.1 to 1 uM incubated for 48 hrs by Annexin V-FITC/propidium iodide staining-based flow cytometric analysis; format: functional, cell-based; conditions: dose 0.1-1 µM, DDE = dose-dependent effect
[13] = tested on: HCT-116; test: Antiproliferative activity against human HCT-116 cells assessed as reduction in cell viability incubated for 72 hrs by WST-8 assay; format: functional, cell-based; conditions: HCT-116, 72 h
[14] = tested on: MDA-MB-231; test: Antiproliferative activity against human MDA-MB-231 cells assessed as reduction in cell viability incubated for 72 hrs by WST-8 assay; format: functional, cell-based; conditions: MDA-MB-231, 72 h
[15] = tested on: SGC-7901; test: Antiproliferative activity against human SGC-7901 cells assessed as reduction in cell viability incubated for 72 hrs by WST-8 assay; format: functional, cell-based; conditions: SGC-7901, 72 h
[16] = tested on: HCT-116; test: Inhibition of colony formation in human HCT-116 cells assessed as reduction in size of colonies at 3 nM drug medium changed every three days for 2 weeks by crystal violet staining based analysis; format: functional, cell-based
[17] = tested on: HCT-116; test: Induction of apoptosis in human HCT-116 cells assessed as early apoptotic cells at 0.1 uM incubated for 48 hrs by Annexin V-FITC/propidium iodide staining-based flow cytometric analysis (reference value: 1.73 %); format: functional
[18] = tested on: HCT-116; test: Induction of apoptosis in human HCT-116 cells assessed as late apoptotic cells at 0.1 uM incubated for 48 hrs by Annexin V-FITC/propidium iodide staining-based flow cytometric analysis (reference value: 5.80 %); format: functional
[19] = tested on: Mus musculus; test: In vivo inhibition of HDAC in HCT-116 cells xenografted in BALB/c mouse assessed as upregulation of alpha tubulin expression at 20 to 40 mg/kg, ip for 15 days by Western blot analysis; format: functional, organism-based; conditions: dose 20-40 mg/kg, time 15.0 day, DDE = dose-dependent effect
[20] = tested on: HCT-116; test: Induction of cell cycle arrest in human HCT-116 cells assessed as accumulation of cells at G2/M phase at 0.1 to 1 uM incubated for 24 hrs by flow cytometry analysis; format: functional, cell-based; conditions: dose 0.1-1 µM, DDE = dose-dependent effect
[21] = tested on: HCT-116; test: Induction of apoptosis in human HCT-116 cells assessed as increase in cleaved PARP level at 0.1 to 1 uM incubated for 48 hrs by Western blot analysis; format: functional, cell-based; conditions: dose 0.1-1 µM
[22] = tested on: HCT-116; test: Inhibition of colony formation in human HCT-116 cells assessed as blockage of anchor growth at 10 nM drug medium changed every three days for 2 weeks by crystal violet staining based analysis; format: functional; conditions: HCT-116, 336 h
[23] = tested on: HL-60; test: Antiproliferative activity against human HL-60 cells assessed as reduction in cell viability incubated for 72 hrs by WST-8 assay; format: functional, cell-based; conditions: HL-60, 72 h
[24] = tested on: HCT-116; test: Induction of apoptosis in human HCT-116 cells assessed as early apoptotic cells at 1 uM incubated for 48 hrs by Annexin V-FITC/propidium iodide staining-based flow cytometric analysis (reference value: 1.73 %); format: functional
[25] = tested on: HCT-116; test: Antitumor activity against human HCT-116 cells xenografted in BALB/c mouse assessed as inhibition of tumor growth at 40 mg/kg, ip adminstered once daily measured every three days for 15 days by vernier caliper method relative to control; format: functional; set-up: scale not given: the % may be the effect or the level left; conditions: time 15 day
[26] = tested on: A549; test: Antiproliferative activity against human A549 cells assessed as reduction in cell viability incubated for 72 hrs by WST-8 assay; format: functional, cell-based; conditions: A549, 72 h
[27] = tested on: HCT-116; test: Induction of cell cycle arrest in human HCT-116 cells assessed as decrease in accumulation of cells at S phase at 1 uM incubated for 24 hrs by flow cytometry analysis; format: functional, cell-based
[28] = tested on: HCT-116; test: Induction of cell cycle arrest in human HCT-116 cells assessed as increase in accumulation of cells at G2/M phase at 1 uM incubated for 24 hrs by flow cytometry analysis; format: functional, cell-based

IC50 [13] [nM] | IC50 [14] [nM] | IC50 [15] [nM] | IC50 [23] [nM] | IC50 [26] [nM] | Compound | IC50 [1] [nM] | IC50 [2] [nM] | further results
 |  |  |  |  | O=C(NC1C2CC3CC(C2)CC1C3)c1cn(CCCCCCCS)c2ccccc12 (stereo unspecified) | 232 | 188 | 
140 | 460 | 40 | 20 | 960 | COc1ccc2c(c1)cc(C(=O)NC1C3CC4CC(C3)CC1C4)n2CCCCCCC(=O)NO (stereo unspecified) | 2.3 | 1.16 | inhibition [3]: Active; Activity [4]: Non-Toxic; Activity [5]: Dde; Activity [6]: Non-Toxic; inhibition [7]: Dde; Activity [8]: 48.8%; Activity [9]: Dde; Activity [10]: Dde; Activity [11]: 44.54%; Activity [12]: Dde; inhibition [16]: Active; Activity [17]: 2.59%; Activity [18]: 29.9%; Activity [19]: Dde; Activity [20]: Dde; Activity [21]: Active; inhibition at 0.01 µM [22]: 100%; Activity [24]: 3.34%; Activity [25]: 71.79%
 |  |  |  |  | O=C(/C=C/c1ccc(Cn2cc(C(=O)NC3C4CC5CC(C4)CC3C5)c3ccccc32)cc1)NO (stereo unspecified) | 73.3 | 143 | 
13800 | 42600 | 6800 | 5740 | 60800 | O=C(CCCCCCn1c(C(=O)NC2C3CC4CC(C3)CC2C4)cc2ccccc21)NO (stereo unspecified) | 2.43 | 2.1 | 
 |  |  |  |  | CC(=O)SCCCCCCn1cc(C(=O)NC2C3CC4CC(C3)CC2C4)c2ccccc21 (stereo unspecified) | > 1000 | > 1000 | 
 |  |  |  |  | O=C(CCCCCCn1nc(C(=O)NC2C3CC4CC(C3)CC2C4)c2ccccc21)NO (stereo unspecified) | 2.72 | 2.96 | 
 |  |  |  |  | O=C(CCCCn1cc(C(=O)NC2C3CC4CC(C3)CC2C4)c2ccccc21)NO (stereo unspecified) | 39.9 | 53.6 | 
3590 |  |  |  |  | O=C(CCCCCCC(=O)Nc1ccccc1)NO [VORINOSTAT] |  |  | Activity [27]: Active; Activity [8]: 36.2%; Activity [28]: Active; Activity [24]: 3.2%
630 | 1770 | 180 | 510 | 920 | O=C(CCCCCCn1c(C(=O)NC2C3CC4CC(C3)CC2C4)cc2ccc(Br)cc21)NO (stereo unspecified) | 4.64 | 3.16 | 
 |  |  |  |  | CC(=O)SCCCCCCCn1cc(C(=O)NC2C3CC4CC(C3)CC2C4)c2ccccc21 (stereo unspecified) | > 1000 | > 1000 | 

Compound | IC50 [13] [nM] | IC50 [14] [nM] | IC50 [15] [nM] | IC50 [23] [nM] | IC50 [26] [nM] | IC50 [1] [nM] | IC50 [2] [nM] | further results
O=C(CCCCCCn1cc(C(=O)NCc2ccc(Cl)cc2)c2ccccc21)NO | > 100000 | > 100000 | > 100000 | 72900 | > 100000 | 1.56 | 2.31 | 
O=C(CCCCCCn1cc(C(=O)NC2CCCCCCC2)c2ccccc21)NO | > 100000 | > 100000 | 67000 | 21500 | > 100000 | 1.8 | 1.31 | 
